Earlier results as cited in patent US11974997B2, “RORgamma modulators and uses thereof” (Genfit, priority 2017, dated 2024).

Experiments:
[1] = administered by injection; cited from earlier work
[2] = administered by injection; cited from earlier work; remark: listed apart in the source

SMILES	efficacy in multiple sclerosis model [1]	efficacy in psoriasis model [2]
CC(=O)Nc1nc(C)c(S(=O)(=O)Nc2ccc(C(O)(C(F)(F)F)C(F)(F)F)cc2)s1 [SR1001]	efficacious	
Cc1ccc([C@@H](NC(=O)Cc2ccc3oc([C@@H](O)c4c(C)noc4C)cc3c2)c2ccccc2)c(C)c1 [TMP778]		efficacious
